Data published in patent US20220041627A1, “PRODRUGS OF ANTI-CANCER AND ANTI-AUTOIMMUNE DISEASES THERAPEUTIC AGENTS, AND METHODS OF MAKING AND USE THEREOF” (UNIVERSITY OF MARYLAND, BALTIMORE, priority 2018, published 2022).

How the values were obtained:
[1] = system: RPMI-8226; assay: NCI-60 growth inhibition, RPMI-8226; type: cell-based, human
Source text: (§1) The anticancer effects of compounds 1a-1b against 60 human cancer cell lines (the Developmental Therapeutics Program of NCI) were studied. The cell lines were derived from different cancer types including leukemia, non-small-cell lung cancer, colon cancer, CNS cancer, melanoma, ovarian cancer, renal cancer, prostate cancer, and breast cancer (Table 1; the assay protocol can be found at: https://dtp.cancer.gov/default.htm). Compound 1a caused over 50% growth inhibition for most tested cell lines. […] Without wishing to be bound by any particular theory, it is believed that the differences in the anticancer effects between compounds 1a and 1b may be due to the more favorable cell membrane permeability of the boronic ester 1a.

[2] = system: HOP-92; assay: NCI-60 growth inhibition, HOP-92; type: cell-based, human
Source text: as §1

[3] = system: NCI-H23; assay: NCI-60 growth inhibition, NCI-H23; type: cell-based, human
Source text: as §1

[4] = system: HCT-15; assay: NCI-60 growth inhibition, HCT-15; type: cell-based, human
Source text: as §1

[5] = system: HT29; assay: NCI-60 growth inhibition, HT29; type: cell-based, human
Source text: as §1

[6] = system: SF-539; assay: NCI-60 growth inhibition, SF-539; type: cell-based, human
Source text: as §1

[7] = system: LOX IMVI; assay: NCI-60 growth inhibition, LOX IMVI; type: cell-based, human; settings: Melanoma LOX IMVI, 48 h
Source text: as §1

[8] = system: UACC-62; assay: NCI-60 growth inhibition, UACC-62; type: cell-based, human
Source text: as §1

[9] = system: IGROV1; assay: NCI-60 growth inhibition, IGROV1; type: cell-based, human
Source text: as §1

[10] = system: OVCAR-3; assay: NCI-60 growth inhibition, OVCAR-3; type: cell-based, human
Source text: as §1

[11] = system: OVCAR-5; assay: NCI-60 growth inhibition, OVCAR-5; type: cell-based, human
Source text: as §1

[12] = system: ACHN; assay: NCI-60 growth inhibition, ACHN; type: cell-based, human; settings: Renal Cancer ACHN, 48 h
Source text: as §1

[13] = system: RXF 393; assay: NCI-60 growth inhibition, RXF 393; type: cell-based, human
Source text: as §1

[14] = system: PC-3; assay: NCI-60 growth inhibition, PC-3; type: cell-based, human
Source text: as §1

[15] = system: BT-549; assay: NCI-60 growth inhibition, BT-549; type: cell-based, human
Source text: as §1

[16] = 5-FU release study with H2O2 (LC/MS); type: physicochemical; settings: for activation by H2O2 to release 5-FU: prodrug 100 μM, H2O2 5 equiv, 30% DMSO in PBS, 37° C., RP-UPLC-MS
Protocol: FIGS. 1A and 1B illustrate the release of 5-FU from compounds 1a-1b. Incubation of prodrugs 1a-1b (100 μM) was carried out in the presence of 5 equivalent of H2O2: (FIG. 1A) compound 1a and (FIG. 1B) compound 1b. The conversion of prodrugs 1a-1b and release of 5-FU was monitored. The data represent mean±SD of triplicates.
Release of 5-FU from the prodrugs was performed at 37° C. in 30% DMSO/Phosphate Buffered saline (PBS). The compounds were co-incubated at 100 μM together with hydrogen peroxide (H2O2) in triplicates. At each time point, aliquots were taken from the solution and diluted in acetonitrile for quantitation in the LC/MS. LC/MS Analysis: samples were analyzed using Xevo TQ-XS Triple Quadrupole Mass Spectrometry (Waters Corp, Milford, Mass.). The column used was a Cortecs C18+2.7 μm 2.1×75 mm column. A 3-min gradient elution with 0.5 mL/min flow rate was used for the samples. Running gradient: 95% mobile phase A over 1.2 min, 95% mobile phase B over 1.2 min, and 95% A 0.6 min, with elution at 1.64 min for the compounds. The ion transitions monitored for the compounds were 5-FU (129.0>40.1) 1a (345.2>86.0), and 1b (263.1>176.1).
Compounds 1a-1b were incubated in a mixture of DMSO in PBS (30%) with the addition of H2O2 (5 equiv) at 37° C. The conversion of prodrugs 1a-1b and the production of 5-FU were followed using RP-UPLC-MS.

[17] = system: caspase 3; assay: Western blot of caspase 3 in MCF7 cells; type: cell-based, human; settings: 48 h; for expression level of caspase 3: compared to vehicle-treated cells; for level of cleavage of caspase 3: compared to vehicle-treated controls
Protocol: FIGS. 4A and 4B illustrate the effect of compounds 1a-1b in apoptosis. FIG. 4A: immunofluorescence of DNA cleavage protein γH2Ax was enhanced by using 5-FU and prodrugs 1a-1b. FIG. 4B: immunoblot analysis of MCF-7 cells treated with 5-FU, prodrugs 1a-1b for apoptosis markers PARP1 and Caspase 3. The cells were treated for 48 h with the indicated concentrations of compounds.
Western Blot Analysis. Treated cells were washed once with PBS and lysed with RIPA lysis buffer (Santa Cruz Biotechnology, SCBT, #24948) supplemented with sodium orthovanadate, PMSF, protease and phosphatase inhibitor cocktails (Sigma Aldrich). Cell lysates were centrifuge for 15 min at 14,000×g and the supernatant was used for immunoblotting. Protein concentration was normalized for the samples and resolved on a 10-13% SDS-PAGE gel. Following transfer to nitrocellulose membrane, specific mouse primary antibodies from SCBT (PARP1 #sc-8007, caspase 3 #sc-7272) and Cell Signaling (cleaved PARP1 #9541, cleaved caspase-3 #9664) were added and incubated overnight. Secondary antibodies corresponding to the host of the primary antibodies was further incubated with the membrane and washed three times to remove excess antibodies. Odyssey Fc Imaging System (LI-COR, Lincoln, Nebr.) was used to quantify the chemiluminescent of the proteins.
To understand the mechanism of action of prodrugs 1a-1b, the impact of the treatment of compounds 1a-1b on the γH2AX formation in MCF7 cells were determined using immunofluorescence assay (FIG. 4A). […] The effects of prodrugs 1a-1b on the PARP1 and caspase 3 cleavage in MCF7 cells were also determined using Western blots assays (FIG. 4B). […] Treatment of 5-FU and compounds 1a-1b increased the levels of cleavage of PARP1 and caspase 3 in MCF7 cells, as compared with that in the vehicle-treated controls. Therefore, prodrugs 1a-1b, similar to 5-FU, can induce MCF7 cell apoptosis, which might contribute to their pharmacological actions.

O=c1[nH]c(=O)n(Cc2ccc(B(O)O)cc2)cc1F [Compound 1b, (4-((5-Fluoro-2,4-dioxo-3,4-dihydropyrimidin-I(2H)-yl)methyl)phenyl)boronic acid]
Growth Inhibition (%) ([1]; Leukemia RPMI-8226, 50 μM, 48 h): 2%
Growth Inhibition (%) ([2]; Non-Small Cell lung Cancer HOP-92, 50 μM, 48 h): 35%
Growth Inhibition (%) ([3]; Non-Small Cell lung Cancer NCI-H23, 50 μM, 48 h): 6%
Growth Inhibition (%) ([4]; Colon Cancer HCT-15, 50 μM, 48 h): 10%
Growth Inhibition (%) ([5]; Colon Cancer HT29, 50 μM, 48 h): 12%
Growth Inhibition (%) ([6]; CNS Cancer SF-539, 50 μM, 48 h): 13%
Growth Inhibition (%) ([7]; 50 μM): 8%
Growth Inhibition (%) ([8]; Melanoma UACC-62, 50 μM, 48 h): 30%
Growth Inhibition (%) ([9]; Ovarian Cancer IGROV1, 50 μM, 48 h): 15%
Growth Inhibition (%) ([10]; Ovarian Cancer OVCAR-3, 50 μM, 48 h): 30%
Growth Inhibition (%) ([11]; Ovarian Cancer OVCAR-5, 50 μM, 48 h): 19%
Growth Inhibition (%) ([12]; 50 μM): 0%
Growth Inhibition (%) ([13]; Renal Cancer RXF 393, 50 μM, 48 h): 17%
Growth Inhibition (%) ([14]; Prostate Cancer PC-3, 50 μM, 48 h): 14%
Growth Inhibition (%) ([15]; Breast Cancer BT-549, 50 μM, 48 h): 30%
activation by H2O2 to release 5-FU [16]: activated efficiently
expression level of caspase 3 [17]: significantly reduced
level of cleavage of caspase 3 [17]: increased

CC1(C)OB(c2ccc(Cn3cc(F)c(=O)[nH]c3=O)cc2)OC1(C)C [Compound 1a, 5-Fluoro-1-(4-(4,4,5,5-tetramethyl-1,3,2-dioxaborolan-2-yl)benzyl)pyrimidine-2,4(1H,3H)-dione]
inhibition at 50 µM ([1]; Homo sapiens, Leukemia RPMI-8226, 48 h): 32%
inhibition at 50 µM ([2]; Homo sapiens, Non-Small Cell lung Cancer HOP-92, 48 h): 67%
inhibition at 50 µM ([3]; Homo sapiens, Non-Small Cell lung Cancer NCI-H23, 48 h): 32%
inhibition at 50 µM ([4]; Homo sapiens, Colon Cancer HCT-15, 48 h): 32%
inhibition at 50 µM ([5]; Homo sapiens, HT-29, Colon Cancer HT29, 48 h): 76%
inhibition at 50 µM ([6]; Homo sapiens, CNS Cancer SF-539, 48 h): 39%
inhibition at 50 µM ([7]; Homo sapiens): 47%
inhibition at 50 µM ([8]; Homo sapiens, Melanoma UACC-62, 48 h): 71%
inhibition at 50 µM ([9]; Homo sapiens, IGROV-1, Ovarian Cancer IGROV1, 48 h): 56%
inhibition at 50 µM ([10]; Homo sapiens, Ovarian Cancer OVCAR-3, 48 h): 95%
inhibition at 50 µM ([11]; Homo sapiens, Ovarian Cancer OVCAR-5, 48 h): 30%
inhibition at 50 µM ([12]; Homo sapiens): 8%
inhibition at 50 µM ([13]; Homo sapiens, Renal Cancer RXF 393, 48 h): 40%
inhibition at 50 µM ([14]; Homo sapiens, Prostate Cancer PC-3, 48 h): 45%
inhibition at 50 µM ([15]; Homo sapiens, Breast Cancer BT-549, 48 h): 60%
activation by H2O2 to release 5-FU [16]: activated efficiently
hydrolysis of boronic ester to boronic acid 1b ([16]; under the release assay conditions (30% DMSO in PBS, H2O2 5 equiv, 37° C.)): hydrolyzes rapidly
expression level of caspase 3 [17]: significantly reduced
level of cleavage of caspase 3 [17]: increased
